Earlier results as cited in patent US12115220B2, “Oral mucosal carrier and protectant” (Inspired Material Solutions, LLC, priority 2018, dated 2024).
Read-outs that look alike come from different tables or passages of the source.

[1] = 10 mg CBD+10 mg THC in an oral capsule
[2] = after buccal Sativex (10 mg THC+10 mg CBD)

| SMILES | mean (SD) peak plasma concentration [1] | plasma maximum concentrations (after a 20 mg dose of oral THC) | mean (SD) peak plasma concentration [2] | Time to maximum concentration (Tmax) (after buccal administration) | Time to maximum concentration (Tmax) (after oral administration) | bioavailability (inhaled) | time of peak concentrations postdose (oral absorption) |
| --- | --- | --- | --- | --- | --- | --- | --- |
| CCCCCc1cc(O)c2c(c1)OC(C)(C)[C@@H]1CCC(C)=C[C@@H]21 [THC, delta-9-tetrahydrocannabinol] | 6.4 (3.1) μg/L | 4.4 to 11.0 µg/L | 6.1 (5.4) μg/L | 2.4 (1.1) h | 1.0 (0.6) h | up to 27% | 1 to 5 h |
| C=C(C)[C@@H]1CCC(C)=C[C@H]1c1c(O)cc(CCCCC)cc1O [CBD, cannabidiol] | 2.5 (2.2) μg/L |  | 3.0 (3.1) μg/L | 2.8 (1.3) h | 1.3 (0.8) h |  |  |
